Assay results: patent US20110294874A1, “DIAGNOSIS AND THERAPY OF ORGAN DYSFUNCTION USING SPHINGANINE-1-PHOSPHATE” (The Trustees of Columbia University in the City of New York, priority 2008, published 2011)
Where “and” joins values, the source holds several entries; their conditions need not be identical. Equal values may be shown once.

Tests used:
[1] = system: C57BL/6 mice subjected to liver IR; test: Evans blue dye extravasation (vascular permeability) in liver and kidney after liver IR; format: in vivo, mouse; details: vs vehicle-treated group
Protocol: After observing marked endothelial apoptosis following liver IR, liver and kidney vascular permeability after liver IR was measured with Evans blue dye (EBD) injection. EBD binds to plasma proteins and its appearance in extravascular tissues reflects an increase in vascular permeability, which is indicative of organ injury. Liver IR increased the EBD content (in μg EBD/g dry weight) in the liver (377±48, N=6) compared to sham-operated mice (48±7, N=4, p<0.001).

[2] = system: C57BL/6 mice subjected to liver IR; test: Murine model of liver ischemia reperfusion (hepatic IR): plasma ALT and creatinine; format: in vivo, mouse
[3] = system: ERK/MAPK, Akt, HSP27; test: Immunoblotting/RT-PCR of liver and kidney of mice injected with Sg1P; format: in vivo, mouse; details: i.v. injection
Protocol: Mice were injected with sphinganine 1-phophate intravenously and their kidney and liver tissues were extracted at 15 minutes after injection (for immunoblotting of phosphorylated proteins) or at 5 hours after injection (for RT-PCR). […] HSP27 is a known F-actin stabilizing and anti-apoptotic protein.

[4] = system: human epithelial HK-2 cell line; test: Kinase phosphorylation and HSP27 expression in HK-2 cells; format: cell-based; details: HK-2 (data not shown)
Excerpt: As shown above, Sg1P protects human endothelial cells, and does so through the same mechanism as shown in mouse tissue.

[5] = system: C57BL/6 mice subjected to liver IR; test: Survival of mice after liver IR; format: in vivo, mouse; details: 24 hours post liver IR
Excerpt: Without Sg1P administration, 20% of mice subjected to liver IR stayed alive after 1 week. With Sg1P treatment, 50% of mice subjected to liver IR that received Sg1P remained alive after the same time period.

[6] = system: SK2 KO mice subjected to liver IR; test: Liver IR in SK2 KO mice: plasma ALT and creatinine; format: in vivo, mouse; details: SK2KO, hepatic IR 24 h
Protocol: The effects of administering Sg1P (0.1 mg/kg i.v. and 0.2 mg/kg s.c.) on liver and renal injury were also determined in the KO mice and are also shown in Tables 9 and 10 below.

[7] = system: C57BL/6 mice subjected to liver IR; test: Pro-inflammatory mRNA (RT-PCR) and plasma TNF-α/IL-6 after liver IR; format: in vivo, mouse
Protocol: Mice were anesthetized with intraperitoneal pentobarbital (50 mg/kg or to effect). Mice were placed under a heating lamp and on a 37° C. heating pad. After a midline laparotomy and intraperitoneal application of 20 U heparin, left lateral and median lobes of the liver were subjected to ischemia with a microaneurysm clip occluding the hepatic triad above the bifurcation. This method of partial hepatic ischemia results in a segmental (˜70%) hepatic ischemia but spares the right lobe of the liver and prevents mesenteric venous congestion by allowing portal decompression throughout the right and caudate lobes of the liver. The liver was then repositioned in the peritoneal cavity in its original location for 60 minutes. The liver was kept moist with gauze soaked in 0.9% normal saline. The body temperature was monitored by an infrared temperature sensor (Linear Laboratories, Fremont, Calif.) every 10 min. and maintained at 37° C. using a heating lamp and a heating pad. After 60 minutes, the liver was reperfused and the wound closed. Sham-operated mice were subjected to laparotomy and identical liver manipulations without vascular occlusion. Two, 4 and 24 hr after reperfusion, plasma was collected for the measurement of alanine aminotransferase (ALT), a common indicator of liver damage, as well as creatinine (Cr) a common indicator of kidney damage. The liver tissue subjected to IR was collected to measure percent liver necrosis (2, 4 and 24 hr after IR), neutrophil infiltration (with immunohistochemistry, 4 and 24 hr after IR), apoptosis (with terminal deoxynucleotidyl transferase-mediated dUTP nick end labeling staining, caspase 3 immunoblotting and DNA laddering, 24 hr after IR), and inflammation by RT-PCR for pro-inflammatory mRNAs (4 hr after IR).
The extent of the suppression was different between kidney and liver. […]

[8] = 0.2 mg/kg i.v. 2 hours post-reperfusion
[9] = C57BL/6 mice, 60 min liver ischemia, 24 h reperfusion
[10] = single dose 0.1 mg/kg i.v. immediately before reperfusion
[11] = single dose 0.2 mg/kg s.c. two hours after reperfusion

CCCCCCCCCCCCCCC[C@@H](O)[C@@H](N)COP(=O)(O)O [Sg1P, sphinganine-1-phosphate]
Increase in EBD content in liver and kidney [1]: significantly lower | ALT (liver protection) [2, 8]: 12063±593 U/L | Creatinine (kidney protection) [2, 8]: 0.93 ± 0.05 mg/dL | Serum ALT (mean) [2, 9]: 7474±557 U/L and 7474 U/L | Serum creatinine (mean) [2, 9]: 0.528 ± 0.07 mg/dL and 0.55 mg/dL | Most effective dose for treating both kidney and liver failure ([2]; dose response 0.01-1.0 mg/kg i.v. prior to reperfusion plus double dose s.c. 2 h after, serum creatinine and ALT): 0.1 mg/kg i.v. prior to reperfusion followed by 0.2 mg/kg s.c. 2 hours after reperfusion | Reduction in the severity of liver injury (change in ALT levels) ([2]; non-nephrectomized mice): 50% | ALT [2, 10]: 7197±753 U/L | Cr [2, 10]: 0.58 ± 0.06 mg/dL | ALT [2, 11]: 14762±1732 U/L | Cr [2, 11]: 0.98 ± 0.06 mg/dL | Phosphorylation of ERK/MAPK, Akt and HSP27 in liver and kidney ([3]; tissues 15 minutes after injection): resulted in phosphorylation | HSP27 mRNA expression in liver and kidney ([3]; tissues 5 hours after injection): induced | Phosphorylation of ERK/MAPK, Akt, HSP27 and HSP27 expression [4]: failed to phosphorylate ERK/MAPK, Akt and HSP27 and also failed to induce HSP27 expression | Survival rate [5]: ~90% | Creatinine (mean) [6]: 0.679 mg/dL | ALT (mean) ([6]; 0.1 mg/kg i.v. and 0.2 mg/kg s.c.): 7575.28 U/L | Liver IR-induced ICAM-1 and MIP-2 mRNA upregulation in kidney ([7]; kidney): suppressed | Liver IR-induced upregulation of ICAM-1, KC, MCP-1 and MIP-2 mRNA in liver ([7]; liver): suppressed | Liver IR-induced increase in plasma TNF-α and IL-6 ([7]; plasma): almost eliminated
